Source: patent publication US20030153056A1, “Glycosyltransferase proteins” (priority 2000, published 2003)

Target: T1, Brainiac β1-3-N-acetylglucosaminyltransferase (Drosophila melanogaster, UniProt Q24157)
T1 construct: The full coding region of Brainiac was prepared by PCR using genomic DNA; made in house; host or cells: High Five insect cells (baculovirus vector pVL1393); microsomal fractions
T1 sequence (Q24157 1-325): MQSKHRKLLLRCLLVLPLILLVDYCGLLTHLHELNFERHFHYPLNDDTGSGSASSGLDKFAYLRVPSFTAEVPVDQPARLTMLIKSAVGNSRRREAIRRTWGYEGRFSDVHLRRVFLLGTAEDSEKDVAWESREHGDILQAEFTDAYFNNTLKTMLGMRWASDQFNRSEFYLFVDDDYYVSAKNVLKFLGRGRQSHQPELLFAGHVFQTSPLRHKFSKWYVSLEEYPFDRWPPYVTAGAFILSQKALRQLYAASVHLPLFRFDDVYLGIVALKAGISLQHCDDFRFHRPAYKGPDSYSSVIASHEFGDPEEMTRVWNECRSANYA
Assay: Substrate specificities of Brainiac β1-3-N-acetylglucosaminyltransferase (acceptor panel, microsomal preparations)
Assay type: biochemical
Settings: microsomes of pVL-Brainiac infected High Five cells, background of irrelevant construct subtracted, donor UDP-GlcNAc

| Compound | Brainiac activity with substrate (substrate 2 mM) | Brainiac activity with substrate (substrate 20 mM) |
| --- | --- | --- |
| CC(=O)N[C@H]1[C@H](O[C@H]2[C@@H](O)[C@@H](CO)O[C@@H](O[C@H]3[C@H](O)[C@@H](O)C(O)O[C@@H]3CO)[C@@H]2O)O[C@H](CO)[C@@H](O[C@@H]2O[C@H](CO)[C@H](O)[C@H](O)[C@H]2O)[C@@H]1O (mixture of isomers) [lacto-N-neo-tetraose] | 0.03 nmol/h/mg |  |
| C[C@H]1OC(O)[C@H](O)[C@@H](O)[C@H]1O (stereo partly drawn) [D-Fuc] | 0.01 nmol/h/mg | 0.01 nmol/h/mg |
| Cc1cc(=O)oc2cc(O[C@H]3O[C@H](C)[C@H](O)[C@H](O)[C@H]3O)ccc12 [D-Fucα1-MeUmb] | 0.00 nmol/h/mg | 0.00 nmol/h/mg |
| OC[C@H]1O[C@@H](O[C@@H]2[C@H](O)[C@@H](O)C(O)O[C@@H]2CO)[C@H](O)[C@@H](O)[C@H]1O (stereo partly drawn) [Galβ1-4Gal] | 0.00 nmol/h/mg | 0.00 nmol/h/mg |
| CC(=O)N[C@H]1[C@H](OCc2ccccc2)O[C@H](CO)[C@@H](O[C@@H]2O[C@H](CO)[C@H](O)[C@H](O)[C@H]2O)[C@@H]1O [Galβ1-4GlcNAcβ1-Bzl] | 0.04 nmol/h/mg | 0.02 nmol/h/mg |
| OC[C@H]1O[C@@H](O[C@H]2[C@H](O)[C@@H](O)C(O)O[C@@H]2CO)[C@H](O)[C@@H](O)[C@H]1O (stereo partly drawn) [Galβ1-4Glc] | 0.42 nmol/h/mg | 3.08 nmol/h/mg |
| OC[C@H]1O[C@@H](O[C@H]2[C@H](O)[C@@H](O)[C@H](OCc3ccccc3)O[C@@H]2CO)[C@H](O)[C@@H](O)[C@H]1O [Galβ1-4Glcβ1-Bzl] | 0.48 nmol/h/mg | 1.69 nmol/h/mg |
| CC(=O)N[C@@H]1C(O)O[C@H](CO)[C@@H](O[C@@H]2O[C@H](CO)[C@H](O)[C@H](O)[C@H]2O)[C@@H]1O (stereo partly drawn) [Galβ1-4ManNAc] | 0.10 nmol/h/mg | 0.42 nmol/h/mg |
| OC[C@H]1O[C@@H](O[C@H]2[C@H](O)[C@H](O)C(O)O[C@@H]2CO)[C@H](O)[C@@H](O)[C@H]1O (stereo partly drawn) [Galβ1-4Man] | 1.48 nmol/h/mg | 8.39 nmol/h/mg |
| Cc1cc(=O)oc2cc(O[C@@H]3O[C@H](CO)[C@H](O)[C@H](O)[C@H]3O)ccc12 [Galβ1-MeUmb] | 0.19 nmol/h/mg | 0.00 nmol/h/mg |
| O=[N+]([O-])c1ccccc1O[C@@H]1O[C@H](CO)[C@H](O)[C@H](O)[C@H]1O [Galβ1-oNph] | 0.21 nmol/h/mg | 0.02 nmol/h/mg |
| C[C@@H]1OC(N)[C@@H](O)[C@H](O)[C@@H]1O (stereo partly drawn) [L-Fucosylamine] | 0.28 nmol/h/mg | 0.60 nmol/h/mg |
| Cc1cc(=O)oc2cc(O[C@@H]3O[C@@H](C)[C@@H](O)[C@@H](O)[C@@H]3O)ccc12 [L-Fucα1-MeUmb] | 0.00 nmol/h/mg | 0.00 nmol/h/mg |
| C[C@@H]1O[C@H](Oc2ccc([N+](=O)[O-])cc2)[C@@H](O)[C@H](O)[C@@H]1O [L-Fucβ1-pNph] | 0.01 nmol/h/mg | 0.02 nmol/h/mg |
| COC1OC(CO)C(O)C(O)C1O (stereo not drawn) [Manα1 -Me] | 0.36 nmol/h/mg | 0.61 nmol/h/mg |
| OCC1OC(OCC2OC(OCC3OC(O)C(O)C(OC4OC(CO)C(O)C(O)C4O)C3O)C(O)C(OC3OC(CO)C(O)C(O)C3O)C2O)C(O)C(O)C1O (stereo not drawn) [Manα1-3(Manα1-6)Manα1-6(Manα1-3)Man] | 0.09 nmol/h/mg | 0.45 nmol/h/mg |
| CO[C@H]1O[C@H](CO)[C@@H](O)[C@H](O[C@H]2O[C@H](CO)[C@@H](O)[C@H](O)[C@@H]2O)[C@@H]1O [Manα1-3Manα1-Me] | 0.00 nmol/h/mg | 0.00 nmol/h/mg |
| CO[C@H]1O[C@H](CO)[C@@H](O[C@H]2O[C@H](CO)[C@@H](O)[C@H](O)[C@@H]2O)[C@H](O)[C@@H]1O [Manα1-4Manα1-Me] | 0.00 nmol/h/mg | 0.00 nmol/h/mg |
| OC[C@H]1O[C@H](OC[C@H]2O[C@H](OCc3ccccc3)[C@@H](O)[C@@H](O[C@H]3O[C@H](CO)[C@@H](O)[C@H](O)[C@@H]3O)[C@@H]2O)[C@@H](O)[C@@H](O)[C@@H]1O [Manα1-6(Manα1-3)Manα1-Bzl] | 0.01 nmol/h/mg | 0.08 nmol/h/mg |
| CO[C@H]1O[C@H](CO[C@H]2O[C@H](CO)[C@@H](O)[C@H](O)[C@@H]2O)[C@@H](O)[C@H](O)[C@@H]1O [Manα1-6Manα1-Me] | 0.02 nmol/h/mg | 0.05 nmol/h/mg |
| Cc1cc(=O)oc2cc(O[C@H]3O[C@H](CO)[C@@H](O)[C@H](O)[C@@H]3O)ccc12 [Manα1-MeUmb] | 0.11 nmol/h/mg | 0.17 nmol/h/mg |
| CO[C@H]1O[C@H](CO)[C@@H](O)[C@H](O)[C@@H]1O[C@@H]1O[C@H](CO)[C@@H](O)[C@H](O)[C@@H]1O [Manβ1-2Manα1-Me] | 0.15 nmol/h/mg | 0.16 nmol/h/mg |
| Cc1cc(=O)oc2cc(O[C@@H]3O[C@H](CO)[C@@H](O)[C@H](O)[C@@H]3O)ccc12 [Manβ1-MeUmb] | 5.25 nmol/h/mg | 6.18 nmol/h/mg |
| CO[C@@H]1O[C@H](CO)[C@@H](O)[C@H](O)[C@@H]1O [Manβ1-Me] | 1.46 nmol/h/mg | 2.74 nmol/h/mg |
| CC(=O)N[C@H]1[C@H](O[C@H]2[C@@H](O)[C@@H](CO)O[C@@H](O[C@H]3[C@H](O)[C@@H](O)C(O)O[C@@H]3CO)[C@@H]2O)O[C@H](CO)[C@@H](O)[C@@H]1O[C@@H]1O[C@H](CO)[C@H](O)[C@H](O)[C@H]1O (stereo partly drawn) [lacto-N-tetraose] | 0.00 nmol/h/mg | 0.00 nmol/h/mg |
| Galβ1-4GlcNAc | 0.03 nmol/h/mg | 0.12 nmol/h/mg |
